Where two headings read alike, the source gives them in different places.
Experiments:
[1] = system: human umbilical vein endothelial cells (HUVEC); experiment: HUVEC growth arrest, crystal violet staining; assay type: cell-based
Excerpt: For the measurement of the HUVEC growth arrest (Example 19) and the used materials and equipment were:
• Cells: Primary human umbilical vein cells (HUVEC) were obtained from GIBCO (Cat. C-015-5C). • Cell culture medium: Medium 200 supplemented with LSGS (Gibco, Cat. M-200-500). • Trypsin/EDTA (Gibco, Cat R-001-100) • Trypsin Neutralizer solution (Gibco, Cat R-002-100). • Crystal violet (Merck / Cat. no. 1408) • Ethanol (Riedel-de-Haen / Cat. no. 32205) • Acetic acid (Riedel-de-Haen / Cat. no. 33209) • Culture flasks: Coming, 430168 • 96 well plates: Greiner, 655 101
• Microtiter pipettes: •Brand Transferpette-8, • Gilson Pipetman 20 and 200 Laminar air flow cabinet: Gelman, Celaire • ELISA reader: Thermo, Multiskan Ascent • Microscope: Leitz Diavert • Balance: Sartorius RC 210 D • CO2 incubator: Heraeus CO2-Auto-Zero • Centrifuge: Heraeus Biofuge primo • Cell counter: Assistent, Neubauer hematocytometer
Crystal violet solution: • Crystal violet (Merck) was dissolved in ethanol (PA quality, Roth) to a concentration of 10 %. The solution was diluted with ddH2O 1:20.
Test compounds: • Compounds of the present invention were dissolved at a concentration of 10 mM in DMSO (Roth, Cat. 47201). Stock solutions of test compounds were diluted 1:10 not earlier than 1 hour before the assay was made.
• 1. HUVEC cells were seeded in 96-well plates ([…]). • 2. 6 hours later test compounds were added in triplicates Concentrations of test compound: 0, 1.6, 3.2, 6.3, 12.5, 25, 50, 100 µM. Fresh medium and test compounds were added every 48 hr. • 3. One 96 well plate (t=0) with untreated cells was fixed at the same time point as treatment of cells with test compounds was initiated. • 4. Test plates were incubated for 10 days in a CO2 incubator. • 5. Fixation of cells: Wells were washed with 100 µL/well PBS. PBS was decanted and 100 µL of 3 % formaldehyde/well was added. After 5 min, formaldehyde was decanted and plates were dried upside down on blotting paper overnight at room temperature. • 6. Staining: 0.1 mL of crystal violet solution was added to each well with a 12-channel pipette. After incubation for 5 min at room temperature, the crystal violet solution was decanted and plates were washed 5 x by submersion in 3 L fresh water. • 7. After drying (plates were dried on blotting paper upside down overnight) 0.1 mL of ethanol/acetic acid (99:1) was added to each well and the optical density at 595 nm was determined in an ELISA reader.
The evaluation of the growth inhibitory activity was carried out as follows: • Definitions: Growth: Mean OD at t=10 d - mean OD at t=0. • Evaluation: Dose response curves were established by plotting growth against concentration of compounds using Microsoft Excel.

hsMetAP-I = hsMetAP-I (Homo sapiens, UniProt P53582); experiment: MetAP inhibitory activity, Met-Gly-Met-Met substrate, HPLC detection of Gly-Met-Met; assay type: biochemical, hs; conditions: single concentration: inhibitor 25 µM, enzyme 50 nM, 15 minutes substrate incubation at 37 °C
Procedure: (§1) The below protocol describes the measurement of the inhibitory activity of the compounds of the present invention by using E. coli MetAP, hsMetAP-I, and hsMetAP-II.
(§2) Inhibition activity of compounds was studied using the tetrapeptide substrate Met-Gly-Met-Met (Bachem) followed by HPLC analysis of the product Gly-Met-Met. The assay was performed in 96 well plates (Greiner) at a total reaction volume of 100 µl. […] A positive control with DMSO solution instead of inhibitor at the corresponding concentration was prepared. Then the substrate Met-Gly-Met-Met was added to a final concentration of 400 µM. After an incubation period of 15 minutes (HsMetAP-I), 20 minutes (EcMetAP) or 60 minutes (HsMetAP-II) at 37 °C, the enzyme reaction was stopped by adding 10 µl 4 % trifluoroacetic acid. The plate was centrifuged at 1000 x g for 10 minutes.
(§3) Detection of the product Gly-Met-Met was performed by HPLC (Jasco), and typically using the following, or equivalent conditions: C18 column (Dr. Maisch, ReproSil-Pur® 120 ODS-3, 3 µm, 50 x 2 mm). 80 µl of sample were applied on the column and eluted with mobile phase A (water and 0.1 % trifluoroacetic acid, filtered, degassed) and B (acetonitrile and 0.1 % trifluoroacetic acid, degassed) over 8 minutes.
(§4) Percentage inhibition was calculated as the relation of Gly-Met-Met amount resulting in inhibited and uninhibited enzyme reaction (positive control). […] The values were determined in relation to positive controls with equal DMSO contents. The inhibition values for the varying concentrations of inhibitor were then fitted to a logarithmic dose-response curve and the IC50 values were calculated from the equation thus obtained.

hsMetAP-II = hsMetAP-II (Homo sapiens, UniProt P50579); experiment: as above; assay type: biochemical, hs
Procedure: as §1
Inhibition activity of compounds was studied using the tetrapeptide substrate Met-Gly-Met-Met (Bachem) followed by HPLC analysis of the product Gly-Met-Met. The assay was performed in 96 well plates (Greiner) at a total reaction volume of 100 µl. […] Then the substrate Met-Gly-Met-Met was added to a final concentration of 400 µM. After an incubation period of 15 minutes (HsMetAP-I), 20 minutes (EcMetAP) or 60 minutes (HsMetAP-II) at 37 °C, the enzyme reaction was stopped by adding 10 µl 4 % trifluoroacetic acid. The plate was centrifuged at 1000 x g for 10 minutes.
as §3, §4

E. coli MetAP = E. coli MetAP (Escherichia coli, UniProt P0AE18); experiment: as above; assay type: biochemical; conditions: for E. Coli % inhibition: single concentration: inhibitor 25 µM, enzyme 50 nM, 20 minutes substrate incubation at 37 °C; for inhibition at 25 µM: read-out: E. Coli % inhibition
Procedure: as §1, §2, §3, §4

[2] = background, Phase II clinical compound; cited from earlier work
[3] = Homo sapiens, HUVEC, 240 h, growth over 10 days, 0-100 µM, OD at 595 nm, read-out: HUVEC IC50
[4] = enzyme 50 nM, 400 µM Met-Gly-Met-Met, 60 minutes at 37 °C, read-out: hsMetAP-II IC50
[5] = single concentration: inhibitor 25 µM, enzyme 50 nM, 60 minutes substrate incubation at 37 °C, read-out: hsMetAP-II % inhibition
[6] = growth over 10 days, 0-100 µM, OD at 595 nm, read-out: HUVEC IC50
[7] = hsMetAP-II IC50, enzyme 50 nM, 400 µM Met-Gly-Met-Met, 60 minutes at 37 °C
[8] = single concentration: inhibitor 25 µM, enzyme 50 nM, 60 minutes substrate incubation at 37 °C
[9] = read-out: hsMetAP-II % inhibition, single concentration: inhibitor 25 µM, enzyme 50 nM, 60 minutes substrate incubation at 37 °C

Sequence of hsMetAP-II (P50579 whole entry): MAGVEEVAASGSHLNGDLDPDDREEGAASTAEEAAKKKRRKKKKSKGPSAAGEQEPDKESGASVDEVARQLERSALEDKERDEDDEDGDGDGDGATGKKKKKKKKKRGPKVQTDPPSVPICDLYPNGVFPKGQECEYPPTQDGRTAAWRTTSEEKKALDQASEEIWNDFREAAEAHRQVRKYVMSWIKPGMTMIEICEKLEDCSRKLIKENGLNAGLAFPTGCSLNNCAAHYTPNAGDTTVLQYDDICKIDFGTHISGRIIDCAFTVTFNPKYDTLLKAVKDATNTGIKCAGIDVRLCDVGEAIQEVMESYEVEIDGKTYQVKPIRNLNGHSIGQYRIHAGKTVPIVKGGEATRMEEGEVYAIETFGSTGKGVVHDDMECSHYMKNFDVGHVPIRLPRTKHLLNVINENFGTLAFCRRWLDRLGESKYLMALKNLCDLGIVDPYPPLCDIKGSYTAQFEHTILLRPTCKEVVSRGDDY
Sequence of E. coli MetAP (P0AE18 whole entry): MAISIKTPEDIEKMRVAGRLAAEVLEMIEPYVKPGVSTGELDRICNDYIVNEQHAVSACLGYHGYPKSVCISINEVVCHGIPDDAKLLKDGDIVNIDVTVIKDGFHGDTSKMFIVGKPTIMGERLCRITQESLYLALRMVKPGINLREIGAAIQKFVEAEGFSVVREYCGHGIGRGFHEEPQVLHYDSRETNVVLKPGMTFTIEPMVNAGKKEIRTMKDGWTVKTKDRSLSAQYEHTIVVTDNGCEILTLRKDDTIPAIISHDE

| Compound | IC50 [1, 3] | hsMetAP-I % inhibition (hsMetAP-I) | inhibitory effect on MetAP-II (in words) (hsMetAP-II) | IC50 (hsMetAP-II; [4]) | inhibition at 25 µM (hsMetAP-II; [5]) | E. Coli % inhibition (E. coli MetAP) | inhibition at 25 µM (E. coli MetAP) | IC50 [1, 6] | IC50 (hsMetAP-II; [7]) | hsMetAP-II % inhibition (hsMetAP-II; [8]) | IC50 ([1]; Homo sapiens, HUVEC, 240 h, read-out: HUVEC IC50, growth over 10 days, 0-100 µM, OD at 595 nm) | inhibition at 25 µM (hsMetAP-II; [9]) | plasma half-life [2] | IC50 (hsMetAP-II) |
| --- | --- | --- | --- | --- | --- | --- | --- | --- | --- | --- | --- | --- | --- | --- |
| COc1ccc(Cn2nnc3c2C2(CCC3=O)CO2)cc1 (stereo not drawn) [HHS-I-028-B] | 8.8 µM | Inactive | good inhibitory effect | 0.98 ± 0.03 µM | 97 ± 0.3% | Inactive | – | – | – | – | – | – | – | – |
| O=C1CCC2(CO2)c2c1nnn2CC1CCCCC1 (stereo not drawn) [BK-I-177-A] | 9.7 µM | Inactive | – | 17 ± 6 µM | 40 ± 3% | – | 19 ± 5% | – | – | – | – | – | – | – |
| COc1ccc(Cn2nnc3c2C2(CCC3OC(=O)Nc3ccccc3)CO2)cc1 (racemic) [UWU-XII-149-A] | – | Inactive | – | – | – | Inactive | – | 3.2 µM | 0.99 ± 0.05 µM | 100% | – | – | – | – |
| COc1ccc(Cn2nnc3c2[C@]2(CC[C@H]3OC(=O)c3ccccc3)CO2)cc1 (racemic) [UWU-II-023-A] | – | Inactive | good inhibitory effect | – | – | Inactive | – | – | 0.6 ± 0.01 µM | – | 2.4 µM | 98.6 ± 0.4% | – | – |
| CO[C@@H]1[C@H](OC(=O)NC(=O)CCl)CC[C@]2(CO2)[C@H]1[C@@]1(C)O[C@@H]1CC=C(C)C [TNP-470] | – | – | – | – | – | – | – | – | – | – | – | – | ~ 2 min | – |
| O=C1CCC2(CO2)c2c1nnn2Cc1ccc(Cl)cc1 (stereo not drawn) [BK-I-184-A] | 7.4 µM | Inactive | – | 0.74 ± 0.03 µM | 100% | – | 14 ± 5% | – | – | – | – | – | – | – |
| COc1ccc(Cn2nnc3c2C2(CCC3OC(=O)NCC(N)=O)CO2)cc1 (stereo not drawn) [UWU-XII-143-A] | 2.6 µM | Inactive | – | – | – | – | 12 ± 1% | – | 0.23 ± 0.02 µM | – | – | 100% | – | – |
| O=C1CCC2(CO2)c2c1nnn2Cc1ccc(C(F)(F)F)cc1 (stereo not drawn) [BK-I-161-A] | 0.9 µM | Inactive | good inhibitory effect | 0.52 ± 0.05 µM | 100% | Inactive | – | – | – | – | – | – | – | – |
| COc1ccc(Cn2nnc3c2C2(CCC3OC(=O)Nc3ccccc3)CO2)cc1 (racemic) [UWU-XIII-005-A] | – | Inactive | – | – | – | Inactive | – | 14.9 µM | 18 ± 5 µM | 44 ± 6% | – | – | – | – |
| CC(C)NC(=O)O[C@@H]1CC[C@@]2(CO2)c2c1nnn2Cc1ccccc1 (racemic) [UWU-XII-128-C] | 9.5 µM | Inactive | – | – | – | – | 18 ± 2% | – | 18 ± 9 µM | – | – | 60 ± 5% | – | – |
| COc1ccc(Cn2nnc3c2C2(CCC3OC(=O)NCC(C)C)CO2)cc1 (racemic) [UWU-XII-142-A] | 2.4 µM | Inactive | – | – | – | – | 18.7 ± 0.8% | – | – | – | – | 100% | – | 0.15 ± 0.03 µM |

From patent EP2711367A1, “New spiroepoxide tetrahydrobenzo-triazoles and -imidazoles and their use as MetAP-II inhibitors” (Deutsches Krebsforschungszentrum, priority 2012, dated 2014)
